Measured values from patent US20220273568A1, “MULT[…] FORMULATIONS OF DEXMEDETOMIDINE” (Pacira Pharmaceuticals, Inc., priority 2019, published 2022).

What was measured:
[1] = rat, in vivo, sc
Procedure: (§1) Pharmacokinetic studies of the subcutaneous dosing of the DXM PK studies discussed herein were performed in rats where bolus DXM was compared to various formulations of DXM-MVLs at doses between 0.21-0.42 mg/kg. Female Sprague Dawley rats supplied by Absorption Systems weighing about 310 g received subcutaneous injections of either a bolus of unencapsulate (free or unencapsulated) DXM dissolved in H3PO4 solution or one the of the DXM-MVL formulations suspended in saline or buffered saline (20 mM phosphate). Injections were made on the left lateral hind limb of each rat using 100 μL syringes fitted with 25G needles. Each treatment group contained 3 rats.
(§2) Plasma samples were collected at different times points (0.5, 1, 2, 6, 12, 24, 48, 72 & 96 hour post dose) for analysis. Blood samples were collected via the right saphenous vein using a 19 gauge needle prick or cardiac puncture for the final time point, placed into chilled tubes containing the appropriate anticoagulant, inverted several times to mix, protected from light, and kept on ice until centrifugation.

in vivo = conditions: female, Sprague Dawley, rat, sc
Procedure: as §1, §2

[2] = background statement; cited from earlier work

With `Cc1cccc([C@H](C)c2cnc[nH]2)c1C` [Unencapsulated DXM solution, dexmedetomidine] the AUC/Dose ([1]; female, Sprague Dawley) was 383 pg·h/mL/mg/kg, the Cmax/Cavg [1] was 2.3 and the “time at which plasma DXM levels peaked” value [1] was “within an hour”. The Tmax (in vivo) was 0.5 h, the half-life (in vivo) was 2 h and the t1/2 [2] was 2 h.
